Read-outs that look alike come from different tables or passages of the source.
Columns and labels:
human CYP17 = human CYP17 (Homo sapiens (Human), UniProt P05093); test: CYP17 inhibition, membrane fraction of E. coli expressing human CYP17; assay type: biochemical; settings: Table 1, progesterone 2.5 μM; for inhibition at 2.5 µM: inhibitor 2.5 μM, read-out: % Inhib. Human CYP17; for IC50: read-out: IC50 Human CYP17 (values in brackets)
CYP11B1 [1] = target: T1, CYP11B1 (Homo sapiens (Human), UniProt P15538); settings: NCI-H295R
T1 sequence (P15538 25-503): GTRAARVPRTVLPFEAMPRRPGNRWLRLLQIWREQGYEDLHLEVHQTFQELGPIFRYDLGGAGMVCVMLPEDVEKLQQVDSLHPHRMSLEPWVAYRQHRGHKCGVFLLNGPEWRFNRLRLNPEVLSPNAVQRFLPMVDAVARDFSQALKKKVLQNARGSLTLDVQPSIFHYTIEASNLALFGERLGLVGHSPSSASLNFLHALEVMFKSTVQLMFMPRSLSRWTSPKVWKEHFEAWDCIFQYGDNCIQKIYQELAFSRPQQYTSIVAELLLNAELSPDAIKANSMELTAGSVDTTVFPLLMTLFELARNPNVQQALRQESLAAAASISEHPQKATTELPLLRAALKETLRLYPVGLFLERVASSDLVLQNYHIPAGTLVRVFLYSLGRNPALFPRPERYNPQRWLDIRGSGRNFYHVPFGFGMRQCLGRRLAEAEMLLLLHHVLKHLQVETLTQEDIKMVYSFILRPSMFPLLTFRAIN

CYP11B1 [2] = target: T1, CYP11B1; test: cell-based; settings: NCI-H295R, read-out: NCI-H295R CYP11B1 RSS % inhibition
CYP11B2 [3] = target: T2, CYP11B2 (Homo sapiens (Human), UniProt P19099); test: cell-based; settings: NCI-H295R
T2 sequence (P19099 25-503): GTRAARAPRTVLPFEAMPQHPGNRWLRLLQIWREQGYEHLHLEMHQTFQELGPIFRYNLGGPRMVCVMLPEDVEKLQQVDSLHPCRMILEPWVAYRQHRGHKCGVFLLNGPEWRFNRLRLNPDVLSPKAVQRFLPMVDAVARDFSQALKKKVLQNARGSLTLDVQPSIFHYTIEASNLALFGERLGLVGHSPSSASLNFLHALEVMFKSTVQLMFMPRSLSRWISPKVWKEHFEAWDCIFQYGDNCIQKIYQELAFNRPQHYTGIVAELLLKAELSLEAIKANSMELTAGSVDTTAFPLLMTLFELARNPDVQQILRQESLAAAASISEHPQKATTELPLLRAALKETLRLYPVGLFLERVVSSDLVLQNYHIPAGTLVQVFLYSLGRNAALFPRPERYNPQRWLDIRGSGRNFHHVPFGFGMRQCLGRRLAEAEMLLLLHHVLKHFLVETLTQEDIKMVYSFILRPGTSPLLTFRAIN

human placental CYP19 = human placental CYP19 (Homo sapiens (Human), UniProt P11511); test: CYP19 (aromatase) inhibition, human placental microsomes; assay type: biochemical; settings: Table 1, androstenedione 2.5 μM; for % Inhib. Human CYP19 (values in brackets): inhibitor concentration not given
Chain of human placental CYP19 (P11511 whole entry): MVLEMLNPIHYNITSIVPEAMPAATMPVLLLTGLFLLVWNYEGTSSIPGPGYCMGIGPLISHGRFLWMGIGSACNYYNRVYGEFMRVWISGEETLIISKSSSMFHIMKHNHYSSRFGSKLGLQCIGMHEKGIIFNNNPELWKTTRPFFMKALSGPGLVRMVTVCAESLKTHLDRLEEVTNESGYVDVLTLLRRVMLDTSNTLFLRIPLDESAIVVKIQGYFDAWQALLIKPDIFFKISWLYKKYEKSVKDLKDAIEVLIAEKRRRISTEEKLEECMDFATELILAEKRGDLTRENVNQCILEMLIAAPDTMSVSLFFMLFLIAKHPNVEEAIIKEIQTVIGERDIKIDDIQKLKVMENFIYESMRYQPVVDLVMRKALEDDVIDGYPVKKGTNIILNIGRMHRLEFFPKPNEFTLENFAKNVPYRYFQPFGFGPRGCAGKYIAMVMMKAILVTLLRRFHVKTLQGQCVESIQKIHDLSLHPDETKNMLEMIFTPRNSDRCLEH

[4] = system: steroid production in H295R cells; test: cells; assay type: cell-based, human; settings: for aldosterone secretion: within 6 hours; for inhibition at 2.5 µM / IC50: Homo sapiens, NCI-H295R; for inhibition at 2.5 µM: inhibitor 2.5 μM
CYP11B2 [5] = target: T2, CYP11B2; test: Screening test in transgenic fission yeast (S. pombe) expressing human CYP11B2; assay type: cell-based
CYP11B1 [6] = target: T1, CYP11B1; test: Inhibition test in V79 MZh11B1 cells (hamster fibroblasts expressing human CYP11B1); assay type: cell-based
CYP11B2 [7] = target: T2, CYP11B2; test: Inhibition test in V79 MZh11B2 cells (hamster fibroblasts expressing human CYP11B2); assay type: cell-based; settings: Table 1; deoxycorticosterone substrate 100 nM; read-out: IC50 value V79 11B2 hCYP11B2
[8] = read-out: NCI-H295R CYP11B2 B % inhibition
[9] = read-out: NCI-H295R CYP11B2 DOC % inhibition
[10] = H295R, 6 h incubation, read-out: % inhibition of DHEA production
[11] = H295R, 6 h incubation, read-out: % inhibition of aldosterone production
[12] = H295R, 6 h incubation, read-out: % inhibition of androstendione production
[13] = H295R, 6 h incubation, read-out: % inhibition of cortisol production
[14] = Table 1, S. pombe cells expressing human CYP11B2, deoxycorticosterone 100 nM, inhibitor 500 nM, read-out: % Inhib. Human hCYP11B2
[15] = Table 1, deoxycorticosterone substrate 100 nM, read-out: IC50 value V79 11B1 hCYP11B1
[16] = read-out: IC50 in V79MZh 11B1 cells (CYP11B1 inhibition)

Chain of human CYP17 (P05093 whole entry): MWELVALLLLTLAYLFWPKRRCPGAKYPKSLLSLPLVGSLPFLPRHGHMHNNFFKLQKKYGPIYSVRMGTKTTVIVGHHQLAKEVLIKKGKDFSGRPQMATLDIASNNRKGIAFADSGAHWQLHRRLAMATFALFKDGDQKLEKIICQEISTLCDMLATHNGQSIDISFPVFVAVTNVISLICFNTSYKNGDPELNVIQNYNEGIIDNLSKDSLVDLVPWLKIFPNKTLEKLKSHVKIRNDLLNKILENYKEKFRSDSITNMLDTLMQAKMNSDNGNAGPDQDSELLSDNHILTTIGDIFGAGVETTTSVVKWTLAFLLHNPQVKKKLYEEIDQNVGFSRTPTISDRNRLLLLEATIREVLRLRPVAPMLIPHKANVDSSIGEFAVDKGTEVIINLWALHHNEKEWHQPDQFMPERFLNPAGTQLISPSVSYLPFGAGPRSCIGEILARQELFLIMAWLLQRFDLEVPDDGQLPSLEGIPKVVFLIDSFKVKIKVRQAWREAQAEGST

Structure (SMILES) | inhibition at 2.5 µM (human CYP17) [%] | IC50 (human placental CYP19) [nM] | inhibition at 0.5 µM (CYP11B2 [5]; [14]) [%] | IC50 (CYP11B1 [6]; [15]) [nM] | IC50 (CYP11B2 [7]) [nM] | other results
c1cncc(-c2ccc3ccccc3c2)c1 [Compound 1, 3-(2-Naphthyl)pyridine] | 40 | – | – | – | – | influence on CYP11B1 in comparison with fadrozole (CYP11B1 [1]): clearly lower extent; inhibition at 2.5 µM (CYP11B1 [2]): 43.4 ± 4.7%; inhibition at 2.5 µM (CYP11B2 [3]; [8]): 45.6 ± 2.2%; inhibition at 2.5 µM (CYP11B2 [3]; [9]): 82.9 ± 0.9%
COc1ccc2cc(-c3cccnc3)ccc2c1 [Compound 2, 3-(6-Methoxy-2-naphthyl)pyridine] | – | 586 | – | – | – | IC50 (human CYP17): 667 nM; cortisol production compared with aldosterone production ([4]; H295R model): cortisol production is inhibited more strongly than the aldosterone production; androsterone production (so in the source) ([4]; H295R, 6 h): inhibited only to a low extent; aldosterone secretion ([4]; H295R): significant concentration-dependent decrease; inhibition at 2.5 µM [4, 10]: 84.5 ± 2%; inhibition at 2.5 µM [4, 11]: 56.4 ± 3.5%; inhibition at 2.5 µM [4, 12]: 84.6 ± 2%; inhibition at 2.5 µM [4, 13]: 78.6 ± 5.4%; IC50 ([4]; H295R, 6 h incubation, read-out: IC50 of DHEA production): < 1 nM; IC50 ([4]; H295R, 6 h incubation, read-out: IC50 of aldosterone production): 963 nM; IC50 ([4]; H295R, 6 h incubation, read-out: IC50 of androstendione production): < 1 nM; IC50 ([4]; H295R, 6 h incubation, read-out: IC50 of cortisol production): < 1 nM; influence on CYP11B1 in comparison with fadrozole (CYP11B1 [1]): clearly lower extent; inhibition at 2.5 µM (CYP11B1 [2]): 48.5 ± 2.9%; inhibition at 2.5 µM (CYP11B2 [3]; [8]): 49.5 ± 2.4%; inhibition at 2.5 µM (CYP11B2 [3]; [9]): 81.4 ± 6.6%
Oc1ccc2cc(-c3cccnc3)ccc2c1 [Compound 3, 6-Pyridin-3-yl-2-naphthol] | 65 | – | 88 | 715 | 23 | % Inhib. Human CYP19 (values in brackets) (human placental CYP19): [61] %
Brc1ccc2cc(-c3cccnc3)ccc2c1 [Compound 4, 3-(6-Bromo-2-naphthyl)pyridine] | 46 | – | 85 | 899 | 15 | % Inhib. Human CYP19 (values in brackets) (human placental CYP19): [33] %
CCOc1ccc2cc(-c3cccnc3)ccc2c1 [Compound 5, 3-(6-Ethoxy-2-naphthyl)pyridine] | 53 | 6640 | 86 | 883 | 12 | –
N#Cc1ccc2cc(-c3cccnc3)ccc2c1 [Compound 8, 6-Pyridin-3-yl-2-naphthonitrile] | – | – | 98 | 691 | 3 | IC50 (human CYP17): 686 nM; % Inhib. Human CYP19 (values in brackets) (human placental CYP19): [44] %
COc1ccc2cc(-c3cccnc3)ccc2c1Cl [Compound 9, 3-(5-Chloro-6-methoxy-2-naphthyl)pyridine] | 32 | 1800 | 86 | 569 | 13 | –
COc1ccc2cc(-c3cccnc3)ccc2c1Br [Compound 10, 3-(5-Bromo-6-methoxy-2-naphthyl)pyridine] | 38 | 9110 | 68 | 1530 | 33 | –
COc1ccc2c(Cl)c(-c3cccnc3)ccc2c1Cl [Compound 12, 3-(1,5-Dichloro-6-methoxy-2-naphthyl)pyridine] | – | 970 | 82 | 1540 | 28 | IC50 (human CYP17): 233 nM
COc1ccc2ccc(-c3cccnc3)cc2c1 [Compound 13, 3-(7-Methoxy-2-naphthyl)pyridine] | – | – | 46 | – | – | –
COc1ccc2ccc(-c3cccnc3)c(Cl)c2c1 [Compound 14, 3-(1-Chloro-7-methoxy-2-naphthyl)pyridine] | – | – | 85 | 771 | 29 | IC50 (human CYP17): 27 nM; % Inhib. Human CYP19 (values in brackets) (human placental CYP19): [65] %
COc1cc2ccccc2cc1-c1cccnc1 [Compound 15, 3-(3-Methoxy-2-naphthyl)pyridine] | – | – | 38 | – | – | –
COC(=O)c1ccc2cc(-c3cccnc3)ccc2c1 [Compound 16, Methyl-6-pyridin-3-yl-2-naphthoate] | 12 | 1250 | 66 | 10500 | 73 | –
c1cncc(-c2cnc3ccccc3c2)c1 [Compound 19, 3-Pyridin-3-ylquinoline] | – | – | 40 | – | – | –
c1cncc(-c2ccc3ccccc3n2)c1 [Compound 20, 2-Pyridin-3-ylquinoline] | – | – | 53 | – | – | –
c1ccc2cc(-n3ccnc3)ccc2c1 [Compound 23, 1-(2-Naphthyl)-1H-imidazole] | 13 | – | 80 | 1050 | 38 | –
COc1cc2ccccc2cc1-n1ccnc1 [Compound 24, 1-(3-Methoxy-2-naphthyl)-1H-imidazole] | 4 | 129 | 86 | 5020 | 40 | –
c1ccc2cc(-c3c[nH]cn3)ccc2c1 [Compound 27, 4(5)-(2-Naphthyl)-1H-imidazole] | – | – | – | 206 | – | % Inhib. Human hCYP11B2 (CYP11B2 [5]; Table 1, S. pombe cells expressing human CYP11B2, deoxycorticosterone 100 nM, inhibitor 500 nM): 41%; IC50 (CYP11B1 [6]; [16]): 206 nM
c1ccc2cc(-c3cnco3)ccc2c1 [Compound 29, 5-(2-Naphthyl)-1,3-oxazole] | – | – | 16 | 805 | – | CYP11B2 inhibition in S. pombe (CYP11B2 [5]): very low; IC50 (CYP11B1 [6]; [16]): 206 to 805 nM
COc1ccc2cc(-c3cncnc3)ccc2c1 [Compound 30, 5-(6-Methoxy-2-naphthyl)pyrimidine] | – | – | 46 | – | – | –
C1=C(n2ccnc2)CCc2ccccc21 [Compound 45, 1-(3,4-Dihydronaphthalene-2-yl)-1H-imidazole] | – | – | – | – | – | CYP11B2 inhibition in S. pombe (CYP11B2 [5]): very low; inhibition at 0.5 µM (CYP11B2 [5]; Table 2, S. pombe cells expressing human CYP11B2, deoxycorticosterone 100 nM, inhibitor 500 nM, read-out: % Inhibition Human hCYP11B2): 34%
COc1ccc2c(c1)CCC(n1ccnc1)=C2 [Compound 46, 1-(6-Methoxy-3,4-dihydronaphthalene-2-yl)-1H-imidazole] | – | – | – | – | – | CYP11B2 inhibition in S. pombe (CYP11B2 [5]): very low; inhibition at 0.5 µM (CYP11B2 [5]; read-out: % Inhibition Human hCYP11B2): 35%; IC50 (CYP11B1 [6]; [16]): 206 to 805 nM; IC50 (CYP11B1 [6]; read-out: IC50 value V79 11B1 hCY11B1): 763 nM
CC(=O)N1CCN(c2ccc(OCC3COC(Cn4ccnc4)(c4ccc(Cl)cc4Cl)O3)cc2)CC1 (stereo not shown) [Ketoconazole, reference compound] | – | – | – | – | – | aldosterone secretion ([4]; H295R): significant concentration-dependent decrease; IC50 ([4]; 6 h, read-out: IC50 of DHEA production): 51.8 nM; IC50 ([4]; 6 h, read-out: IC50 of aldosterone production): 13100 nM; IC50 ([4]; 6 h, read-out: IC50 of androstendione production): 59.6 nM; IC50 ([4]; 6 h, read-out: IC50 of cortisol production): 155 nM; inhibition at 2.5 µM [4, 10]: 94.4 ± 0.6%; inhibition at 2.5 µM [4, 11]: 33.3 ± 3.3%; inhibition at 2.5 µM [4, 12]: 89.2 ± 1.2%; inhibition at 2.5 µM [4, 13]: 88.1 ± 1%

Source: US9271963B2, “Selective inhibitors of human corticosteroid synthases” (UNIVERSITAT DES SAARLANDES, priority 2005, dated 2016)
